# Experimental data taken from patent US4328235A, “Suppressing pain with benzothiazol-2(3H)-ones” (Boehringer Ingelheim GmbH, priority 1979, dated 1982).
# Like-named read-outs stand apart in the source and are kept apart here.
# Legend:
# methemoglobin = experiment: Determination of the level of methemoglobin in the cat; type: in vivo; conditions: oesophageal tube
# Experimental: The test substances were administered to cats of both sexes having an average body weight of 2.5 kg, as a trituration in 1% methyl cellulose using an oesophageal tube (2 ml/kg; the oesophageal tube was cleared in situ by aqua bidestillata). After a single application blood-tests were taken by heart-punctuation at different times, that is, at 3 hours, 5 hours, 24 hours, and 48 hours after administration. The photometric registration of the spectrum of hemoglobin as well as the determination of the content of hemoglobin in comparison to controls were effected according to the method of LEMBERG and LEGGE [Hematin Compounds and Bile Pigments, Interscience Publishers, New York (1949)].
# [1] = system: body temperature of Chbb:THOM-rats; experiment: Antipyretic activity (rectal body temperature of rats); type: in vivo, rat; conditions: for ED (-1.5 degC): Rattus norvegicus, po, read-out: ED-1.5° C. (dose which decreases the body temperature by 1.5° C.)
# Experimental: The test substances were administered as a trituration in a 1% methyl cellulose in portions of 1.0 ml/100 g of animal using an oesophageal tube.
# From the values for the average maximum decline of temperature, which were gained after the administration of the different doses of the test substances, and after a linear regression analysis according to LINDER, an ED-1.5° C. was calculated with the confidence limits according to FIELLER as the dose which decreases the body temperature by 1.5° C.
# [2] = system: Sensitivity of the Mouse in the Hot Plate Test; experiment: Hot plate test (sensitivity of the mouse, increase of reaction time); type: in vivo; conditions: po, read-out: ED100 (dose which increased the time of reaction by 100%)
# Experimental: The test substances were administered as trituration in 1% methyl cellulose (0.1 ml/10 g of mouse) by means of an oesophageal tube.
# Before treatment with the test substances, the animals were twice put on the hot plate at an interval of 30 minutes, whereby their individual times of reaction were measured. After treatment with a test substance, the times of reaction of the animals were again measured in an interval of 30 minutes.
# Acute toxicity in mice = conditions: mouse, in vivo, po; Chbb-NMRI (SPF)-mice of both sexes, oesophageal tube, deaths within 14 days
# Experimental: The acute toxicity was determined in Chbb-NMRI (SPF)-mice of both sexes, having an average body weight of 20 grams. The test compounds were administered as a trituration in 1% methyl cellulose (0.5 ml/10 g of animal) by means of an oesophageal tube. The calculation of the LD50 values was effected according to the method of LITCHFIELD and WILCOXON [J. Pharmacol. Exp. Ther., 96. 99 (1949)], based on the percentage of animals which died within 14 days after administration of different doses.
# [3] = system: Pain of Inflammation on the Back Paw of the Rat; experiment: Randall-Selitto test (pain of inflammation, yeast oedema, back paw of the rat); type: in vivo; conditions: po, 0.75 h, read-out: ED50 (dose which increased the pain threshold by 50%)
# Experimental: The activity against the pain caused by inflammation was tested according to the method of RANDALL-SELITTO [Arch. Int. […] After a further 45 minutes the pain threshold was determined in the animals treated with the test compound and in the control animals treated only with the vehicle.
# [4] = literature: W. Nimmich, Pharmazie, 19, (4), 281 (1964); cited from earlier work
# [5] = 100 mg/kg, 3 hours after administration
# [6] = 100 mg/kg, 5 hours after administration
# [7] = 100 mg/kg, 24 hours after administration
# [8] = 200 mg/kg, 3 hours after administration
# [9] = 200 mg/kg, 5 hours after administration
# [10] = 200 mg/kg, 24 hours after administration
# [11] = Chbb:THOM-rats, oesophageal tube
# [12] = male Chbb:NMRI (SPF)-mice, oesophageal tube, hot plate 52° C.
# [13] = male Chbb:THOM-rats, oesophageal tube, 45 minutes after administration
# [14] = 50 mg/kg, 3 hours after administration
# [15] = 50 mg/kg, 5 hours after administration
# [16] = 50 mg/kg, 24 hours after administration
Compound,Average value of methemoglobin (methemoglobin; [5]),Average value of methemoglobin (methemoglobin; [6]),Average value of methemoglobin (methemoglobin; [7]),Average value of methemoglobin (methemoglobin; [8]),Average value of methemoglobin (methemoglobin; [9]),Average value of methemoglobin (methemoglobin; [10]),"ED (-1.5 degC) [1, 11] [mg/kg]","ED100 [2, 12] [mg/kg]",LD50 at 336 h (Acute toxicity in mice) [mg/kg],"ED50 [3, 13] [mg/kg]",Average value of methemoglobin (methemoglobin; [14]),Average value of methemoglobin (methemoglobin; [15]),Average value of methemoglobin (methemoglobin; [16]),other results
"COc1ccc2nc(O)sc2c1 [B, 6-Methoxy-benzothiazol-2(3H)-one]",4.6 % of total hemoglobin,3.5 % of total hemoglobin,0.0 % of total hemoglobin,8.1 % of total hemoglobin,11.7 % of total hemoglobin,0.0 % of total hemoglobin,66.8,122,1280,142,–,–,–,–
"CCOc1ccc(NC(C)=O)cc1 [D, Phenacetin, reference compound]",32.0 % of total hemoglobin,35.8 % of total hemoglobin,0.5 % of total hemoglobin,36.0 % of total hemoglobin,46.6 % of total hemoglobin,15.4 % of total hemoglobin,–,–,1460,–,19.6 % of total hemoglobin,9.8 % of total hemoglobin,0.5 % of total hemoglobin,"Average value of methemoglobin (methemoglobin; 25 mg/kg, 3 hours after administration): 1.9 % of total hemoglobin; Average value of methemoglobin (methemoglobin; 25 mg/kg, 5 hours after administration): 0.4 % of total hemoglobin; Average value of methemoglobin (methemoglobin; 200 mg/kg, 48 hours after administration): 1.1 % of total hemoglobin; ED (-1.5 degC) [1]: 34.4 mg/kg; Antipyretic activity (in words) ([1]; rat, in vivo): an antipyretic activity; ED100 [2]: 328 mg/kg; ED50 [3]: 274 mg/kg"
"O=c1[nH]c2ccccc2s1 [Example 2, Benzothiazol-2(3H)-one]",–,–,–,–,–,–,–,–,–,–,–,–,–,Antimicrobial and fungistatic activity [4]: antimicrobial and fungistatic acitivity
"Cc1ccc2[nH]c(=O)sc2c1 [C, 6-Methyl-benzothiazol-2(3H)-one]",4.0 % of total hemoglobin,2.4 % of total hemoglobin,0.1 % of total hemoglobin,13.6 % of total hemoglobin,13.7 % of total hemoglobin,0.4 % of total hemoglobin,30.9,144,2160,54.4,–,–,–,–
"CCOc1ccc2[nH]c(=O)sc2c1 [A, 6-Ethoxy-benzothiazol-2(3H)-one]",0.4 % of total hemoglobin,0.1 % of total hemoglobin,0.3 % of total hemoglobin,1.0 % of total hemoglobin,0.4 % of total hemoglobin,0.5 % of total hemoglobin,84.3,154,1200,64.3,0.3 % of total hemoglobin,0.5 % of total hemoglobin,1.1 % of total hemoglobin,–
